Measurements reported in the kinase profiling compilation of Christmann-Franck et al. (2016).

Legend:
Conditions in all cases: compound 10.0 µM
MAP2K3 (human) = MAP2K3 (human) (UniProt P46734)
TESK1 (human) = TESK1 (human) (UniProt Q15569)
TXK (human) = TXK (human) (UniProt P42681)
CDK18 (human) = CDK18 (human) (UniProt Q07002)
CSNK2A1 (human) = CSNK2A1 (human) (UniProt P68400)
RIOK3 (human) = RIOK3 (human) (UniProt O14730)
ZAP70 (human) = ZAP70 (human) (UniProt P43403)
PRKX (human) = PRKX (human) (UniProt P51817)
MAP3K6 (human) = MAP3K6 (human) (UniProt O95382)
MAP2K4 (human) = MAP2K4 (human) (UniProt P45985)
CSNK1A1 (human) = CSNK1A1 (human) (UniProt P48729)
AKT1 (human) = AKT1 (human) (UniProt P31749)
SIK2 (human) = SIK2 (human) (UniProt Q9H0K1)
EPHA6 (human) = EPHA6 (human) (UniProt Q9UF33)
[1] = target: JAK3 JH1 catalytic (human) (UniProt P52333)
EIF2AK1 (human) = EIF2AK1 (human) (UniProt Q9BQI3)
FLT1 (human) = FLT1 (human) (UniProt P17948)
PKN3 (M.tuberculosis) = PKN3 (M.tuberculosis) (UniProt Q6P5Z2)
TAOK2 (human) = TAOK2 (human) (UniProt Q9UL54)
PAK3 (human) = PAK3 (human) (UniProt O75914)
PRKACB (human) = PRKACB (human) (UniProt P22694)
[2] = test system: KIT (human), P10721 [V559D]
TNK2 (human) = TNK2 (human) (UniProt Q07912)
MKNK2 (human) = MKNK2 (human) (UniProt Q9HBH9)
PHKG1 (human) = PHKG1 (human) (UniProt Q16816)
CAMK4 (human) = CAMK4 (human) (UniProt Q16566)
CSNK1A1L (human) = CSNK1A1L (human) (UniProt Q8N752)
CSNK1D (human) = CSNK1D (human) (UniProt P48730)
RPS6KA4 KD1 (human) = RPS6KA4 KD1 (human) (UniProt O75676)
RPS6KA4 KD2 (human) = RPS6KA4 KD2 (human) (UniProt O75676)
PDGFRB (human) = PDGFRB (human) (UniProt P09619)
PRPF4B (human) = PRPF4B (human) (UniProt Q13523)
FGFR3 (human) = FGFR3 (human) (UniProt P22607)
STK36 (human) = STK36 (human) (UniProt Q9NRP7)
[3] = target: TYK2 JH1 catalytic (human) (UniProt P29597)
MAP2K2 (human) = MAP2K2 (human) (UniProt P36507)
STK11 (human) = STK11 (human) (UniProt Q15831)
DAPK3 (human) = DAPK3 (human) (UniProt O43293)
MAP3K13 (human) = MAP3K13 (human) (UniProt O43283)
NUAK2 (human) = NUAK2 (human) (UniProt Q9H093)
[4] = test system: FLT3 (human), P36888 [D835H]

Chain of TAOK2 (human) (Q9UL54 whole entry, looked up): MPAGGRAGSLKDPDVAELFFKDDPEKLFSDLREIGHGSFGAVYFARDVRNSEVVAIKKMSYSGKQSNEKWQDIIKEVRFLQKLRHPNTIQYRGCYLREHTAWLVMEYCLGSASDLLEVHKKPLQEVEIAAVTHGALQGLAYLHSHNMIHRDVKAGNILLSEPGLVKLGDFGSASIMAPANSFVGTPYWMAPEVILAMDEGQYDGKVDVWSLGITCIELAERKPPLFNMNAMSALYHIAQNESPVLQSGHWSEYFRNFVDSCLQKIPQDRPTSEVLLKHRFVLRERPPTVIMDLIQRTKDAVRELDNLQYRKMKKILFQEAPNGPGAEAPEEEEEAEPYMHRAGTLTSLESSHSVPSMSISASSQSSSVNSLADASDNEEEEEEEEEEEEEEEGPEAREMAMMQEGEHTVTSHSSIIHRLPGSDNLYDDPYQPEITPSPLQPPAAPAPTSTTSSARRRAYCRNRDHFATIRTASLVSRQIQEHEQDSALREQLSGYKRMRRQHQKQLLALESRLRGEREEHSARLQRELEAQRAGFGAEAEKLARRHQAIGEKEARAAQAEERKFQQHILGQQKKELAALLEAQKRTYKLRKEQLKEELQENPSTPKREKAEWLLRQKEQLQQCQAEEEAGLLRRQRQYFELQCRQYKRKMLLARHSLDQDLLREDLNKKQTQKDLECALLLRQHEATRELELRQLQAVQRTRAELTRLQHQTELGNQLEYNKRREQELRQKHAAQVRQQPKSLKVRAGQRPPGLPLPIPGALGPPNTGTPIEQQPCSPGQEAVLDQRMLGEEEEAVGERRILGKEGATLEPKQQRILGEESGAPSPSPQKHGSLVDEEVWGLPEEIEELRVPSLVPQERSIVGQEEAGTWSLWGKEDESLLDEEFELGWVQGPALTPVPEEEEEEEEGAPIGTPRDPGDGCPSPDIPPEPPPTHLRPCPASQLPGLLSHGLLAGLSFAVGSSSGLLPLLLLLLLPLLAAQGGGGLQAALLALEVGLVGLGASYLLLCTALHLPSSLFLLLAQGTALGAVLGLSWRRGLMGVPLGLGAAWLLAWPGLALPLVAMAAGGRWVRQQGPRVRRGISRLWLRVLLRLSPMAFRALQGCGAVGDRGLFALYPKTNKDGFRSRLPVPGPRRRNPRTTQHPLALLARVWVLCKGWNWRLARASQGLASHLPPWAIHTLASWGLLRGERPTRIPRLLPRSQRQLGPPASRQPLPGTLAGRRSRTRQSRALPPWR
Chain of MAP3K13 (human) (O43283 whole entry, looked up): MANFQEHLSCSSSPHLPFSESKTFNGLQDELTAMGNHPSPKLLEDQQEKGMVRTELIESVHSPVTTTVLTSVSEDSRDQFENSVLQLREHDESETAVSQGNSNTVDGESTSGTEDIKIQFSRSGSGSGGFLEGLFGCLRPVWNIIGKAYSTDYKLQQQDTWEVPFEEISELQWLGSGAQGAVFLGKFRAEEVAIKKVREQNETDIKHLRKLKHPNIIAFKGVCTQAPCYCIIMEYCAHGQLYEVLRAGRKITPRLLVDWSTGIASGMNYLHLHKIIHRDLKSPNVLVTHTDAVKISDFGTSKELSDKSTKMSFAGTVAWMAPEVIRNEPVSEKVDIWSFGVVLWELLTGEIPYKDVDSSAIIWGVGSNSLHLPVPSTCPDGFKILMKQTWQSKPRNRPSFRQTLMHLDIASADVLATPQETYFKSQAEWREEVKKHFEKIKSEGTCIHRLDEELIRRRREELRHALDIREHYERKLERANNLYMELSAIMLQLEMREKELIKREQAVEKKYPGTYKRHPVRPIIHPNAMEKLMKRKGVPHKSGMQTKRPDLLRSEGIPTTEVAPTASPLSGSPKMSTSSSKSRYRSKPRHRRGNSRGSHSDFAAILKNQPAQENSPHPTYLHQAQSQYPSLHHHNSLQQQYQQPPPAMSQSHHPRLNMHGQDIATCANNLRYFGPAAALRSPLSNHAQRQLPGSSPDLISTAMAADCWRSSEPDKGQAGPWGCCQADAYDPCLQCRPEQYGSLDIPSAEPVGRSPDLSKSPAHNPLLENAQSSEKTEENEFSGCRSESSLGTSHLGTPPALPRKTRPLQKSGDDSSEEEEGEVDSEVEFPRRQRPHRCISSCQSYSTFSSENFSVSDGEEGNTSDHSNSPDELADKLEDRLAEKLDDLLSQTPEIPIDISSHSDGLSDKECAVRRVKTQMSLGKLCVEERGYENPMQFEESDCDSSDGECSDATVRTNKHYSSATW
Chain of CSNK1A1L (human) (Q8N752 whole entry, looked up): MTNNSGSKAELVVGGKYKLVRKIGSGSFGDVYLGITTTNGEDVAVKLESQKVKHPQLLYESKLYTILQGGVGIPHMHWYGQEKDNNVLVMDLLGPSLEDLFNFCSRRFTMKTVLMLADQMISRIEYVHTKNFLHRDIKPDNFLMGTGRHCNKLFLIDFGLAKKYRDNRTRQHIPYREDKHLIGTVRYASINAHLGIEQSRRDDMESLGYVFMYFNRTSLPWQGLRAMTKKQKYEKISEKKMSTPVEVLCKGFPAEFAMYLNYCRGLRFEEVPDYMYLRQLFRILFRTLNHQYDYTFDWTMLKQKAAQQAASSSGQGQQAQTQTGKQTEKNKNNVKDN
Chain of AKT1 (human) (P31749 whole entry, looked up): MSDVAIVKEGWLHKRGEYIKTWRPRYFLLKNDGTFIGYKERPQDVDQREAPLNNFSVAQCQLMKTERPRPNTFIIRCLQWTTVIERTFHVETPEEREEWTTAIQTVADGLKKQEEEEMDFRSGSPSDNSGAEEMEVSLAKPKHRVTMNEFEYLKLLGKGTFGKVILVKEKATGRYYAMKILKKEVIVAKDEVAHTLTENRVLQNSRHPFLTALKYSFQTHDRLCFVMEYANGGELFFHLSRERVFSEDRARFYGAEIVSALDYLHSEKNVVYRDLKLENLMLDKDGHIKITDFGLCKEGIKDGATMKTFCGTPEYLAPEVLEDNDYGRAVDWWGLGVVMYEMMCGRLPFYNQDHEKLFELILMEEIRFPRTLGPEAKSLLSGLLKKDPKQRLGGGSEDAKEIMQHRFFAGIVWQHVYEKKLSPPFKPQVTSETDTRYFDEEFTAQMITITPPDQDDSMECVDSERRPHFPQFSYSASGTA
Chain of STK11 (human) (Q15831 whole entry, looked up): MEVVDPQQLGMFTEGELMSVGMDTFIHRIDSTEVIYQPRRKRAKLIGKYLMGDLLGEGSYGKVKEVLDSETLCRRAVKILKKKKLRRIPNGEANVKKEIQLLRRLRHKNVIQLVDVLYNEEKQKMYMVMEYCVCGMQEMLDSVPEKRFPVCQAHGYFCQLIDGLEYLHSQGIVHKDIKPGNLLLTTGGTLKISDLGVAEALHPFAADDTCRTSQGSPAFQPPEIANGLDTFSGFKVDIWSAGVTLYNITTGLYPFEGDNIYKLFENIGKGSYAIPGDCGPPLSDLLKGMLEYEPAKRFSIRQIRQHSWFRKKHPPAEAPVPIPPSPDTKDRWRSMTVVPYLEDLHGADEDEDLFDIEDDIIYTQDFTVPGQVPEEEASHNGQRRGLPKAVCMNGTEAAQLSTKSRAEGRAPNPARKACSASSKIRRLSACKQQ
Chain of TXK (human) (P42681 whole entry, looked up): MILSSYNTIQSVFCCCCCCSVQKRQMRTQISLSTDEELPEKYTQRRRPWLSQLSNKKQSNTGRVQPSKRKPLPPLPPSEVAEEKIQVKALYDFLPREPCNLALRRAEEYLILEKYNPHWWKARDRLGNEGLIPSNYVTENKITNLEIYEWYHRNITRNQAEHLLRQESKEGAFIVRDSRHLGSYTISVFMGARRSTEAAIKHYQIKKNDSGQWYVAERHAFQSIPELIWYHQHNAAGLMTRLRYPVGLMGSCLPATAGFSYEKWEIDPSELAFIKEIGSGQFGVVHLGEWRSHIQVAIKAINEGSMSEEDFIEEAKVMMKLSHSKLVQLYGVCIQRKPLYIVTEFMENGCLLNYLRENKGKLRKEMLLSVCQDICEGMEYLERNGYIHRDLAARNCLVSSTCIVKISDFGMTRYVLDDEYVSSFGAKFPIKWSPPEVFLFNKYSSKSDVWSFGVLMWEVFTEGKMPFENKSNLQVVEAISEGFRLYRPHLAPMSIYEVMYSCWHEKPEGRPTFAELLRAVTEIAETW
Chain of CSNK1D (human) (P48730 whole entry, looked up): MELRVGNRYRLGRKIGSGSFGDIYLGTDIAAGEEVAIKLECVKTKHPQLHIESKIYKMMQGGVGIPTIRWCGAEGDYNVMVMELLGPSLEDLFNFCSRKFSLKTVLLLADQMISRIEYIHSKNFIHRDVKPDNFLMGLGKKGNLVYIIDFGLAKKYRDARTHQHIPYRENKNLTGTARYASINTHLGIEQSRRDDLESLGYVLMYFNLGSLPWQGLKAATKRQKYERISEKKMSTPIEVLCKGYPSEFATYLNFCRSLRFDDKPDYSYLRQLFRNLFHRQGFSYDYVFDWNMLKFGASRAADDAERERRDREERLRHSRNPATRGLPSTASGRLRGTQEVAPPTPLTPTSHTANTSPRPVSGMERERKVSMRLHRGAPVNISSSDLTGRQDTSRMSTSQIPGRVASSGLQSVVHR
Chain of MAP2K3 (human) (P46734 whole entry, looked up): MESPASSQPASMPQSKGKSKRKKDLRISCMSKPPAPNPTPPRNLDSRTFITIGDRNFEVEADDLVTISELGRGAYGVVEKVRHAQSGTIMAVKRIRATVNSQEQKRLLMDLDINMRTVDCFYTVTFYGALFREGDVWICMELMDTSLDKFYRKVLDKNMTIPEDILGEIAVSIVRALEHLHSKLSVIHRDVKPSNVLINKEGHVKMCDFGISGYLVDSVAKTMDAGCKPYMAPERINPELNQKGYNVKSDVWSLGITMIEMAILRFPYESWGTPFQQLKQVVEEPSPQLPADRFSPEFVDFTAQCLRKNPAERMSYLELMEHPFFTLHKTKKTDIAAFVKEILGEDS

CNC(=O)c1cc(Oc2ccc(NC(=O)Nc3ccc(Cl)c(C(F)(F)F)c3)cc2)cc[n+]1[O-]
per cent of control (MAP2K3 (human)): 71%
per cent of control (TESK1 (human)): 55%
per cent of control (TXK (human)): 78%
per cent of control (CDK18 (human)): 26%
per cent of control (CSNK2A1 (human)): 94%
per cent of control (RIOK3 (human)): 73%
per cent of control (ZAP70 (human)): 77%
per cent of control (PRKX (human)): 100%
per cent of control (MAP3K6 (human)): 64%
per cent of control (MAP2K4 (human)): 60%
per cent of control (CSNK1A1 (human)): 100%
per cent of control (AKT1 (human)): 100%
per cent of control (SIK2 (human)): 66%
per cent of control (EPHA6 (human)): 6.6%
per cent of control [1]: 78%
per cent of control (EIF2AK1 (human)): 100%
per cent of control (FLT1 (human)): 0.65%
residual activity (PKN3 (M.tuberculosis)): 100%
per cent of control (TAOK2 (human)): 8%
per cent of control (PAK3 (human)): 43%
per cent of control (PRKACB (human)): 98%
per cent of control [2]: 0%
per cent of control (TNK2 (human)): 100%
per cent of control (MKNK2 (human)): 0.05%
per cent of control (PHKG1 (human)): 77%
per cent of control (CAMK4 (human)): 54%
per cent of control (CSNK1A1L (human)): 100%
per cent of control (CSNK1D (human)): 91%
per cent of control (RPS6KA4 KD1 (human)): 13%
per cent of control (RPS6KA4 KD2 (human)): 98%
per cent of control (PDGFRB (human)): 0%
per cent of control (PRPF4B (human)): 99%
per cent of control (FGFR3 (human)): 32%
per cent of control (STK36 (human)): 26%
per cent of control [3]: 100%
per cent of control (MAP2K2 (human)): 84%
per cent of control (STK11 (human)): 100%
per cent of control (DAPK3 (human)): 100%
per cent of control (MAP3K13 (human)): 68%
per cent of control (NUAK2 (human)): 85%
per cent of control [4]: 0.7%

CNC(=O)c1cc(Oc2ccc(NC(=O)Nc3ccc(Cl)c(C(F)(F)F)c3)cc2)ccn1
per cent of control (MAP2K3 (human)): 93%
per cent of control (TESK1 (human)): 72%
per cent of control (TXK (human)): 98%
per cent of control (CDK18 (human)): 57%
per cent of control (CSNK2A1 (human)): 100%
per cent of control (RIOK3 (human)): 88%
per cent of control (ZAP70 (human)): 91%
per cent of control (PRKX (human)): 98%
per cent of control (MAP3K6 (human)): 72%
per cent of control (MAP2K4 (human)): 85%
per cent of control (CSNK1A1 (human)): 100%
per cent of control (AKT1 (human)): 100%
per cent of control (SIK2 (human)): 74%
per cent of control (EPHA6 (human)): 1.6%
per cent of control [1]: 100%
per cent of control (EIF2AK1 (human)): 100%
per cent of control (FLT1 (human)): 0.7%
residual activity (PKN3 (M.tuberculosis)): 100%
per cent of control (TAOK2 (human)): 0.65%
per cent of control (PAK3 (human)): 56%
per cent of control (PRKACB (human)): 100%
per cent of control [2]: 0%
per cent of control (TNK2 (human)): 99%
per cent of control (MKNK2 (human)): 0.1%
per cent of control (PHKG1 (human)): 73%
per cent of control (CAMK4 (human)): 42%
per cent of control (CSNK1A1L (human)): 100%
per cent of control (CSNK1D (human)): 84%
per cent of control (RPS6KA4 KD1 (human)): 81%
per cent of control (RPS6KA4 KD2 (human)): 100%
per cent of control (PDGFRB (human)): 0%
per cent of control (PRPF4B (human)): 94%
per cent of control (FGFR3 (human)): 20%
per cent of control (STK36 (human)): 16%
per cent of control [3]: 100%
per cent of control (MAP2K2 (human)): 88%
per cent of control (STK11 (human)): 98%
per cent of control (DAPK3 (human)): 94%
per cent of control (MAP3K13 (human)): 88%
per cent of control (NUAK2 (human)): 100%
per cent of control [4]: 0.45%
